Structures are written as SMILES.

Data set [1] in a line: in vitro. Particulars: human, plasma.
Data set [2] in a line: in vitro. To be noted: SD, HW or BN, rat, plasma.

In the case of `O=C(O)CNC(=O)c1ncccc1O`, the fraction unbound at 5 h in the data set “in vitro [1]” (PPB) is 0.232; in the data set “in vitro [2]”, 0.24.
On the same counts, the results for `COCCNCC(=O)NC12CC3CC(CC(C3)C1)C2` are 0.5 and 0.483.
`CN(c1ccccc1)S(=O)(=O)c1ccc(NC(=O)C(C)(O)C(F)(F)F)cc1` (stereo not given): the fraction unbound at 5 h is 0.0229 in the data set “in vitro [1]” (PPB) and 0.024 in “in vitro [2]”.
Take `Cc1ccc(S(=O)(=O)NCCSc2nnnn2-c2ccc(C(N)=O)cc2)cc1`: the fraction unbound at 5 h is 0.101 in “in vitro [1]” (PPB) and 0.19 in “in vitro [2]”.
For `Cc1ccc(S(=O)(=O)Nc2ccc3nc(C)sc3c2)cc1`, the fraction unbound at 5 h in the data set “in vitro [1]” is 0.0021; in the data set “in vitro [2]”, 0.0053.
As for `Cc1cc(C)c(C)c(Cn2ccc3c(/C=N/NC(=O)c4ccc(O)c(C#N)c4)cccc32)c1C`, the figures for the unbound share (fraction unbound) at 5 h in “in vitro [1]” (PPB) and in “in vitro [2]” were 0.04 and 0.0032, respectively.
On the same counts, the results for `CC(O)(C(=O)Nc1ccc(S(=O)(=O)N2CCOCC2)cc1)C(F)(F)F` (stereo not given) are 0.371 and 0.151.
On the same counts, the results for `Cc1ccc(S(=O)(=O)Nc2ccc3nc(C)oc3c2)cc1` are 0.0209 and 0.051.
With `O=c1cc(Cn2c(C3CCC3)nc3nccnc32)c2ccc(F)c(F)c2[nH]1`, the results for the fraction unbound at 5 h in the data set “in vitro [1]” (PPB) and in “in vitro [2]” were 0.201 and 0.16, respectively.
With `CN(C)CCC1CCN(c2cc(C(=O)NC[C@H]3CC[C@H](CNC(=O)OC4CCOCC4)CC3)c3ccccc3n2)CC1`, the fraction unbound at 5 h was 0.179 in “in vitro [1]” (PPB) and 0.262 in “in vitro [2]”.
On the same counts, the results for `CC(C)(C)[C@@H](O)C(=O)N1CCC[C@H]1C(=O)NCc1cc(Cl)ccc1CN` are 0.58 and 0.5.
In the case of `Nc1nc(-c2nn(Cc3ccccc3F)c3ncccc23)nc(N)c1N1CCOCC1`, the results for the unbound share (fraction unbound) at 5 h in the data set “in vitro [1]” and in the data set “in vitro [2]” were 0.0768 and 0.117, respectively.
For `Cc1ccc(S(=O)(=O)Nc2c(C(=O)NC3CCOCC3)c(C)nn2-c2ccccc2)cc1`, the fraction unbound at 5 h in “in vitro [1]” (PPB) was 0.0262; in “in vitro [2]” it was 0.089.
`O=c1cc(N2CCOCC2)nc2n(Cc3cccc(Cl)c3)ccn12`: the fraction unbound at 5 h in the data set “in vitro [1]” (PPB) is 0.101; in the data set “in vitro [2]”, 0.11.
The matching figures for `COc1ccc(CCC[N+](C)(CCCc2ccc(OC)cc2)CCNC(=O)c2nc(Cl)c(N)nc2N)cc1`: 0.163 and 0.157.
Regarding `CCOc1ccc([C@@H](C)Nc2nc(N3CCN(C(C)=O)CC3)nc3c2CN(C(C)C)C3=O)cc1F`, the unbound share (fraction unbound) at 5 h was 0.334 in the data set “in vitro [1]” (PPB) and 0.258 in the data set “in vitro [2]”.
Consider `Cn1c(-c2cc(=O)c(O)c[nH]2)nn(S(=O)(=O)NC(=O)N2C[C@H](NC(=O)/C(=N\OC(C)(C)C(=O)O)c3csc(N)n3)C2=O)c1=O`, for which the fraction unbound at 5 h in “in vitro [1]” (PPB) was 0.0447; in “in vitro [2]” it was 0.0149.
The matching figures for `Cc1nn(-c2ccccc2)nc1C(=O)N[C@@H]1COc2cccc(N3CCN(C)CC3)c2C1`: 0.0418 and 0.0383.
On the same counts, the results for `O=C(N[C@@H]1COc2cccc(-c3ccc(CO)nc3)c2C1)c1ccc(OCCOCC(F)(F)F)nc1` are 0.0409 and 0.089.
`CC(C)C(NC(=O)c1ccccc1)C(=O)c1ccc([N+](=O)[O-])cc1` (stereo not given): the figures for the free fraction (fraction unbound) at 5 h in “in vitro [1]” (PPB) and in “in vitro [2]” were 0.0418 and 0.069, respectively.
With `CC(C)C(NC(=O)c1ccccc1)C(=O)c1ccc(F)cc1` (stereo not given), the fraction unbound at 5 h in the data set “in vitro [1]” (PPB) was 0.0499; in the data set “in vitro [2]” it was 0.0836.
The matching figures for `CC(C)C(NC(=O)c1ccccc1)C(=O)c1ccc(C#N)cc1` (stereo not given): 0.0928 and 0.124.
On the same counts, the results for `CC(C)C(NC(=O)c1cc(Cl)ccc1C(F)(F)F)C(=O)c1ccc(C#N)cc1` (stereo not given) are 0.0262 and 0.0428.
The matching figures for `COc1ncc(-c2cccc(C#N)c2CCNC(=O)c2ccc(OCCC(F)(F)F)nc2)cn1`: 0.119 and 0.139.
On to `Cc1cnc(-c2c(F)ccc(F)c2CCNC(=O)c2ccc(COCC(F)(F)F)nc2)cn1`, for which the fraction unbound at 5 h in “in vitro [1]” (PPB) was 0.0801; in “in vitro [2]” it was 0.28.
For `COc1cnc(-c2cccc(F)c2C(F)(F)CNC(=O)c2ccc(COCC(F)(F)F)nc2)cn1`, the fraction unbound at 5 h is 0.0328 in the data set “in vitro [1]” (PPB) and 0.0457 in the data set “in vitro [2]”.
Take `O=c1cc(N2CCOCC2)nc(NCc2ccccc2)[nH]1`: the unbound share (fraction unbound) at 5 h in “in vitro [1]” (PPB) is 0.266; in “in vitro [2]”, 0.19.
The matching figures for `O=c1cc(N2CCOCC2)nc(NCc2cccc3ccccc23)[nH]1`: 0.0321 and 0.0251.
Consider `O=c1cc(N2CCOCC2)nc(NCc2cccc(Cl)c2Cl)[nH]1`, for which the unbound share (fraction unbound) at 5 h is 0.0209 in “in vitro [1]” (PPB) and 0.0179 in the data set “in vitro [2]”.
As for `O=c1cc(N2CCOCC2)nc(NCc2cccc(Cl)c2)[nH]1`, the fraction unbound at 5 h in the data set “in vitro [1]” (PPB) is 0.0705; in the data set “in vitro [2]”, 0.0477.
On the same counts, the results for `O=c1cc(N2CCOCC2)nc(NCc2c(Cl)cccc2Cl)[nH]1` are 0.04 and 0.0418.
The matching figures for `O=C(NCc1cccc(OC(F)(F)F)c1)C1c2ccccc2C(=O)N1CCc1ncc(F)cn1` (stereo not given): 0.0447 and 0.179.
For `O=C(NCc1ccc(F)c(OC(F)(F)F)c1)C1c2ccccc2C(=O)N1CCc1ncc(F)cn1` (stereo not given), the fraction unbound at 5 h was 0.0321 in the data set “in vitro [1]” (PPB) and 0.0988 in the data set “in vitro [2]”.
On the same counts, the results for `O=C(NCc1ccc(F)c(C(F)(F)F)c1)C1c2ccccc2C(=O)N1CCc1ncc(F)cn1` (stereo not given) are 0.0477 and 0.129.
On the same counts, the results for `O=C(NCc1ccc(OC(F)(F)F)cc1)C1c2cccc(O)c2C(=O)N1CCc1ncc(F)cn1` (stereo not given) are 0.0179 and 0.0418.
In the case of `O=C(NCc1ccc(OC(F)(F)F)cc1)C1c2ccccc2C(=O)N1CCc1ncc(F)cn1` (stereo not given), the fraction unbound at 5 h in “in vitro [1]” (PPB) is 0.0477; in “in vitro [2]”, 0.0928.
For the compound `O=C(NCc1ccc(OC(F)(F)F)cc1)C1c2ccccc2C(=O)N1C[C@@H]1CCCO1` (stereo not given in full), the figures for the fraction unbound at 5 h in the data set “in vitro [1]” (PPB) and in “in vitro [2]” were 0.0358 and 0.0606, respectively.
Take `O=C(NCc1ccc(OC(F)(F)F)cc1)C1c2ccccc2C(=O)N1CCc1ccccn1` (stereo not given): the unbound share (fraction unbound) at 5 h in the data set “in vitro [1]” (PPB) is 0.0358; in the data set “in vitro [2]” it was 0.0447.
Take `O=C(NCc1ccc(OCC(F)(F)F)nc1)C1c2ccccc2C(=O)N1CCc1ccccn1` (stereo not given): the fraction unbound at 5 h in the data set “in vitro [1]” (PPB) was 0.0928; in the data set “in vitro [2]” it was 0.371.
Consider `COc1ccc(-c2c(C(=O)N3CCC[C@H]3CO)cc3cccnn23)cc1`, for which the fraction unbound at 5 h was 0.11 in “in vitro [1]” (PPB) and 0.262 in the data set “in vitro [2]”.
With `CCN(CCO)C(=O)c1oc2cccnc2c1-c1cccc(C(F)(F)F)c1`, the free fraction (fraction unbound) at 5 h is 0.0872 in the data set “in vitro [1]” (PPB) and 0.139 in the data set “in vitro [2]”.
On the same counts, the results for `CN(Cc1cccc2ccccc12)c1cc(N2CCOCC2)nc(=O)[nH]1` are 0.0568 and 0.0064.
In the case of `O=c1nc(N2CCOCC2)cc(N(CCO)Cc2cccc3ccccc23)[nH]1`, the fraction unbound at 5 h is 0.139 in the data set “in vitro [1]” (PPB) and 0.151 in the data set “in vitro [2]”.
The matching figures for `CN1CCN(S(=O)(=O)c2ccc(-c3cnc(N)c(C(=O)Nc4cnccc4CN4CCCC4)n3)cc2)CC1`: 0.0784 and 0.0988.
On the same counts, the results for `Cc1ncc(C(N)=S)nc1-c1ccc([C@H]2CC[C@H](CC(=O)O)CC2)cc1` are 0.028 and 0.0099.
On the same counts, the results for `Cc1nc(C(F)F)c(C(N)=O)nc1-c1ccc([C@H]2CC[C@H](CC(=O)O)CC2)cc1` are 0.0544 and 0.0383.
Regarding `Cc1nc(C(C)C)c(C(N)=O)nc1-c1ccc([C@H]2CC[C@H](CC(=O)O)CC2)cc1`, the fraction unbound at 5 h in “in vitro [1]” (PPB) was 0.0262; in the data set “in vitro [2]”, 0.0119.
On the same counts, the results for `Cc1nc(C(C)C)c(-c2ccc([C@H]3CC[C@H](CC(=O)O)CC3)cc2)nc1C(N)=O` are 0.0219 and 0.0119.
As to `NC(=O)c1cncc(-c2ccc([C@H]3CC[C@H](CCO)CC3)cc2)n1`, the results for the fraction unbound at 5 h in the data set “in vitro [1]” (PPB) and in “in vitro [2]” were 0.028 and 0.013, respectively.
The matching figures for `Cc1nc(C)c(-c2ccc([C@H]3CC[C@H](CC(=O)NC(C)(C)C(=O)O)CC3)cc2)nc1C(N)=O`: 0.0784 and 0.0251.
On the same counts, the results for `NC(=O)c1cncc(-c2ccc([C@H]3CC[C@H](CC(=O)O)CC3)cc2)n1` are 0.035 and 0.0063.
The matching figures for `O=C(CCCN1CC[Si](O)(c2ccc(Cl)cc2)CC1)c1ccc(F)cc1`: 0.0544 and 0.0544.
In the case of `O=C(CCCN1CC[Si](O)(c2cccc(C(F)(F)F)c2)CC1)c1ccc(F)cc1`, the figures for the fraction unbound at 5 h in the data set “in vitro [1]” (PPB) and in “in vitro [2]” were 0.0409 and 0.0447, respectively.
For the compound `Cc1nnc(-c2ccc(N3CCC(Oc4cc(F)ccc4Cl)CC3)nn2)o1`, the fraction unbound at 5 h in “in vitro [1]” (PPB) is 0.0179; in “in vitro [2]”, 0.0082.
For the compound `C[S+]([O-])Cc1ccc(C(=O)Nc2cccnc2C(=O)NCC2CCC2)c2ccccc12` (stereo not given), the fraction unbound at 5 h in the data set “in vitro [1]” was 0.013; in “in vitro [2]”, 0.0119.
The matching figures for `COc1ccc(NC(=O)c2ccc(C[S+](C)[O-])c3ccccc23)c(C(=O)NCC2CCOCC2)n1` (stereo not given): 0.0544 and 0.0437.
Consider `CC(C)(C)NC(=O)CN1CCN(CC(=O)NC23CC4CC(CC(C4)C2)C3)CC1`, for which the fraction unbound at 5 h in “in vitro [1]” (PPB) was 0.299; in the data set “in vitro [2]”, 0.309.
Take `CC(C)Oc1cc(Nc2nc(N[C@@H](C)c3ccc(F)cc3)nc(NC(CO)CO)c2Cl)n[nH]1`: the fraction unbound at 5 h was 0.0358 in the data set “in vitro [1]” (PPB) and 0.0428 in “in vitro [2]”.
As to `CC(NC(=O)c1cc2ccccc2[nH]1)c1ccccc1` (stereo not given), the unbound share (fraction unbound) at 5 h in the data set “in vitro [1]” (PPB) was 0.0219; in “in vitro [2]” it was 0.0366.
As for `Cc1onc(-c2ccccc2)c1C(=O)N(C)c1ccc(Cl)cc1`, the fraction unbound at 5 h was 0.0418 in the data set “in vitro [1]” (PPB) and 0.0752 in “in vitro [2]”.

One may read the fraction unbound as free concentration divided by total concentration. High values mean weak binding, low ones extensive binding.

The record behind these values is ChEMBL document CHEMBL3301361, “Experimental in vitro DMPK and physicochemical data on a set of publicly disclosed compounds”.
